Measured values reported in PMC11923649, “Novel C-2 Aromatic Heterocycle-Substituted Triterpenoids Inhibit Hedgehog Signaling in GLI1 Overexpression Cancer Cells” (ACS Omega, 2025).
pIC50: −log10 of the molar value.

Tests used:
[1] = system: A549 (lung adenocarcinoma); experiment: MTS cytotoxicity assay, 72 h, A549; assay type: cell-based; settings: Homo sapiens, A549, 72 h
Description: (§1) Based on the preliminary results and tests of a larger library of known triterpenoids, a small set of 2-substituted lupane and 18α-oleanane derivatives was designed and synthesized. As the first step, the cytotoxic activity of the synthesized derivatives was assessed using an MTS assay following 72 h of treatment (Table 1). Selected cell lines A549 (lung adenocarcinoma) and DU-145 (prostate cancer) are both dependent on Hh signaling. In addition, K562 (chronic myelogenous leukemia) was included as a cell line sensitive to Hh inhibitors[32] and a type of hematological malignancy with active Hh signaling.[33] MRC-5 lung fibroblasts and BJ human skin fibroblasts cell lines were used to evaluate the toxicity against nontumor cells. Compounds were also tested using the standard panel of other cancer cell lines, as described in our earlier work (Table 1).[27]
(§2) The human prostate tumor-derived cell line DU145 was obtained from ATCC (American Type Culture Collection) and cultured in RPMI 1640 (Roswell Park Memorial Institute) medium supplemented with 10% (v/v) fetal bovine serum (FBS). Human prostate tumor-derived LNCaP cells were obtained from ATCC and cultured in RPMI 1640 medium supplemented with 10% FBS. The human nonsmall cell lung carcinoma (NSCLC)-derived cell line HOP-62 was obtained from the DSMZ (German Collection of Microorganisms and Cell Cultures) and cultured in RPMI 1640 medium supplemented with 10% FBS. The human nonsmall cell lung carcinoma-derived cell line NCI-H322 was obtained from ECACC (European Collection of Authenticated Cell Cultures) and cultured in RPMI 1640 medium supplemented with 10% FBS. The human nonsmall cell lung carcinoma-derived cell line NCI-H522 was obtained from ATCC and cultured in RPMI 1640 medium supplemented with 10% FBS. The human lung tumor-derived cell line A549 was obtained from ATCC and cultured in Dulbecco’s Modified Eagle’s Medium (DMEM) supplemented with 10% FBS. The human medulloblastoma-derived cell line DAOY was obtained from ATCC and cultured in Eagle’s Minimum Essential Medium (EMEM) supplemented with 10% FBS. The human glioblastoma-derived cell line T98G was obtained from ATCC and cultured in EMEM medium supplemented with 10% FBS, 1 mmol/L sodium pyruvate, and 1 mmol/L nonessential amino acid mixture. All the above-mentioned cell lines were cultured at 37 °C in an atmosphere of 5% CO2 with 95% humidity. The cytotoxicity MTS assays were performed using MTS (3-(4,5-dimethylthiazol-2-yl)-5-(3-carboxymethoxyphenyl)-2-(4-sulfophenyl)-2H-tetrazolium) tetrazolium salt. Briefly, cells were seeded in a 384-well transparent plate in a volume of 25 μL and a concentration of 15,000 cells/mL (DU145, LNCaP, HOP-62, A549, DAOY, T98G) or 30,000 cells/mL (NCI-H322, NCI-H522). The next day, cells were exposed to compounds in a concentration range of 50–0.0975 μmol/L (dilution factor 2) and cultured in the presence of the compounds for 72 h. After 72 h, 5 μL of MTS/phenazine methosulfate solution was pipetted into each well and incubation continued for 1–4 h. Finally, the absorbance at 490 nm was measured using an EnVision multifunctional modular reader (PerkinElmer). The IC50 value was determined using Dotmatics software.

DU-145 (prostate cancer) = experiment: MTS cytotoxicity assay, 72 h, DU-145; assay type: cell-based, human; settings: Homo sapiens, DU-145, 72 h
Description: as §1, §2

[2] = system: K562 (chronic myelogenous leukemia); experiment: MTS cytotoxicity assay, 72 h, K562; assay type: cell-based; settings: Homo sapiens
Description: as §1, §2

K562-TAX = experiment: MTS cytotoxicity assay, 72 h, K562-TAX; assay type: cell-based
Description: as §1, §2

HCT 116 = experiment: MTS cytotoxicity assay, 72 h, HCT 116; assay type: cell-based; settings: Homo sapiens, HCT-116, 72 h
Description: as §1, §2

HCT116 p53–/– = experiment: MTS cytotoxicity assay, 72 h, HCT116 p53–/–; assay type: cell-based; settings: Homo sapiens, HCT-116, 72 h
Description: as §1, §2

U2OS = experiment: MTS cytotoxicity assay, 72 h, U2OS; assay type: cell-based; settings: Homo sapiens
Description: as §1, §2

CCRF-CEM = experiment: MTS cytotoxicity assay, 72 h, CCRF-CEM; assay type: cell-based; settings: for pIC50: Homo sapiens, CCRF-CEM, 72 h, MTS
Description: as §1, §2

CEM-DNR = experiment: MTS cytotoxicity assay, 72 h, CEM-DNR; assay type: cell-based; settings: Homo sapiens
Description: as §1, with “1).[27] […]” for “1).[27]”

[3] = system: BJ human skin fibroblasts; experiment: MTS cytotoxicity assay, 72 h, BJ fibroblasts; assay type: cell-based; settings: normal fibroblasts; for pIC50: Homo sapiens, Skin fibroblast
Description: as §1, §2

MRC-5 lung fibroblasts = experiment: MTS cytotoxicity assay, 72 h, MRC-5 fibroblasts; assay type: cell-based, human; settings: normal fibroblasts; for pIC50: Homo sapiens, MRC5, 72 h
Description: as §1, §2

[4] = IC50 of CCRF-CEM line vs average of both fibroblasts (BJ and MRC-5), Table 1
[5] = CCRF-CEM vs average of BJ and MRC-5, full Table S1

Compound	pIC50 ([1]; Table 1)	pIC50 ([1]; full Table S1)	pIC50 (DU-145 (prostate cancer); Table 1)	pIC50 ([2]; Table 1)	pIC50 (K562-TAX; Table 1)	pIC50 (K562-TAX; full Table S1)	pIC50 (HCT 116; Table 1)	pIC50 (HCT 116; full Table S1)	pIC50 (HCT116 p53–/–; Table 1)	pIC50 (HCT116 p53–/–; full Table S1)	pIC50 (U2OS; Table 1)	pIC50 (U2OS; full Table S1)	pIC50 (CCRF-CEM; Table 1)	pIC50 (MRC-5 lung fibroblasts; full Table S1)	pIC50 (DU-145 (prostate cancer); full Table S1)	pIC50 ([2]; full Table S1)	SI (selectivity index) (CCRF-CEM; [5])	pIC50 (CCRF-CEM; full Table S1)	pIC50 (CEM-DNR; full Table S1)	pIC50 ([3]; full Table S1)	other results
C=C(C)[C@@H]1CC[C@]2(C(=O)O)CC[C@]3(C)C(CCC4[C@@]5(C)C=C(c6ccc7c(c6)OCCO7)C(=O)C(C)(C)C5CC[C@]43C)C12 (stereo partly shown) [Compound 11j, 2-(1,4-Benzodioxan)-3-oxolupa-1,20(29)-dien-28-oic acid]	4.85	4.87	5.15	5.12	4.77	4.78	4.66	4.66	4.68	4.68	4.66	4.66	5.31	4.56	–	–	–	–	–	–	SI (selectivity index) (CCRF-CEM; [4]): >7.9; pIC50 (CEM-DNR; Table 1): 4.62; pIC50 ([3]; Table 1): < 4.30; pIC50 (MRC-5 lung fibroblasts; Table 1): 4.55
C=C(C)[C@@H]1CC[C@]2(C(=O)OCc3ccccc3)CC[C@]3(C)C(CCC4[C@@]5(C)C=C(c6cncc7ccccc67)C(=O)C(C)(C)C5CC[C@]43C)C12 (stereo partly shown) [Compound 10l, Benzyl 2-(4-Isoquinoline)-3-oxolupa-1,20(29)-dien-28-oate]	–	< 4.30	–	–	–	< 4.30	–	< 4.30	–	< 4.30	–	< 4.30	–	< 4.30	< 4.30	< 4.30	> 1.0	< 4.30	< 4.30	< 4.30	–
C=C(C)[C@@H]1CC[C@]2(C(=O)O)CC[C@]3(C)C(CCC4[C@@]5(C)C=C(c6cncc7ccccc67)C(=O)C(C)(C)C5CC[C@]43C)C12 (stereo partly shown) [Compound 11l, 2-(Isoquinoline)-3-oxolupa-1,20(29)-dien-28-oic acid]	4.85	4.86	5.08	< 4.30	5.06	–	4.72	4.73	4.51	4.51	4.60	4.61	5.14	–	–	–	–	–	–	–	SI (selectivity index) (CCRF-CEM; [4]): >7.0; pIC50 (CEM-DNR; Table 1): 4.77; pIC50 ([3]; Table 1): < 4.30; IC50 BJ ([3]; Table 1): below the detection limit; pIC50 (MRC-5 lung fibroblasts; Table 1): < 4.30; IC50 MRC-5 (MRC-5 lung fibroblasts; Table 1): below the detection limit
C=C(C)[C@@H]1CC[C@]2(C(=O)OCc3ccccc3)CC[C@]3(C)C(CCC4[C@@]5(C)C=C(c6ccncc6)C(=O)C(C)(C)C5CC[C@]43C)C12 (stereo partly shown) [Compound 10h, Benzyl 2-(4-Pyridinyl)-3-oxolupa-1,20(29)-dien-28-oate]	–	< 4.30	–	–	–	< 4.30	–	< 4.30	–	< 4.30	–	< 4.30	–	< 4.30	< 4.30	< 4.30	> 1.0	< 4.30	< 4.30	< 4.30	–
CC1(C)C(=O)C(c2cc3ccccc3s2)=C[C@@]2(C)C1CC[C@]1(C)C2CCC2C3[C@H]4OC[C@@]3(CCC4(C)C)CC[C@]21C (stereo partly drawn) [Compound 4k, 2-(Benzo[b]thien-2-yl)-19β,28-epoxyolean-1-en-3-one]	–	< 4.30	–	–	–	< 4.30	–	< 4.30	–	< 4.30	–	< 4.30	–	< 4.30	< 4.30	< 4.30	> 1.0	< 4.30	< 4.30	< 4.30	–
C=C(C)[C@@H]1CC[C@]2(C(=O)O)CC[C@]3(C)[C@H](CC[C@@H]4[C@@]5(C)CC[C@H](O)C(C)(C)[C@@H]5CC[C@]43C)[C@@H]12 [Betulinic acid 5, betulinic acid, reference compound]	5.03	–	5.02	5.37	4.85	4.85	4.80	–	4.80	–	4.68	–	5.09	–	–	–	–	–	–	–	SI (selectivity index) (CCRF-CEM; [4]): 3.2; pIC50 (CEM-DNR; Table 1): 4.85; pIC50 ([3]; Table 1): 4.62; pIC50 (MRC-5 lung fibroblasts; Table 1): 4.55
CC1(C)C(=O)C(c2ccncc2)=C[C@@]2(C)C1CC[C@]1(C)C2CCC2C3[C@H]4OC[C@@]3(CCC4(C)C)CC[C@]21C (stereo partly drawn) [Compound 4h, 2-(Pyridine-4-yl)-19β,28-epoxyolean-1-en-3-one]	< 4.30	–	4.66	< 4.30	4.74	4.74	< 4.30	–	< 4.30	–	< 4.30	–	4.72	–	4.66	–	–	4.73	–	–	SI (selectivity index) (CCRF-CEM; [4]): >2.7; pIC50 (CEM-DNR; Table 1): 4.72; pIC50 ([3]; Table 1): < 4.30; pIC50 (MRC-5 lung fibroblasts; Table 1): < 4.30
C=C(C)[C@@H]1CC[C@]2(C(=O)OCc3ccccc3)CC[C@]3(C)C(CCC4[C@@]5(C)C=C(c6ccoc6)C(=O)C(C)(C)C5CC[C@]43C)C12 (stereo partly shown) [Compound 10b, Benzyl 2-(3-Furanyl)-3-oxolupa-1,20(29)-dien-28-oate]	–	< 4.30	–	–	–	< 4.30	–	< 4.30	–	< 4.30	–	< 4.30	–	< 4.30	< 4.30	< 4.30	> 1.0	< 4.30	< 4.30	< 4.30	–
C=C(C)[C@@H]1CC[C@]2(C(=O)OCc3ccccc3)CC[C@]3(C)C(CCC4[C@@]5(C)C=C(c6ccco6)C(=O)C(C)(C)C5CC[C@]43C)C12 (stereo partly shown) [Compound 10a, Benzyl 2-(2-Furanyl)-3-oxolupa-1,20(29)-dien-28-oate]	–	< 4.30	–	–	–	< 4.30	–	< 4.30	–	< 4.30	–	< 4.30	–	< 4.30	< 4.30	< 4.30	> 1.0	< 4.30	< 4.30	< 4.30	–
CC1(C)C(=O)C(c2ccco2)=C[C@@]2(C)C1CC[C@]1(C)C2CCC2C3[C@H]4OC[C@@]3(CCC4(C)C)CC[C@]21C (stereo partly drawn) [Compound 4a, 2-(Furan-2-yl)-19β,28-epoxyolean-1-en-3-one]	–	< 4.30	–	–	–	< 4.30	–	< 4.30	–	< 4.30	–	< 4.30	–	< 4.30	< 4.30	< 4.30	> 1.0	< 4.30	< 4.30	< 4.30	–
